Patent US10428060B2, “PI-kinase inhibitors with anti-infective activity” (The Board of Trustees of the Leland Stanford Junior …, priority 2011, dated 2019)

Key:
PI3K p110g = target: T1, PI3K p110g (Homo sapiens, UniProt P48736); assay: PI3K p110g kinase assay; type: biochemical
T1 construct: purchased Millipore
Description: (§1) In the assays described here, p110α-p85 complex and p110γ were acquired from Millipore. Assays were performed with Lα-phosphatidylinositol (Avanti) as described in Knight et al. Nat Protoc. 2007; 2 (10):2459-66. Inhibitor series were prepared 10% DMSO as 5× stocks for the assay. Assays of HsVps34 were performed as described in Knight et al, except that the final assay buffer composition used was changed to 20 mM HEPES 7.5, 100 mM NaCl, 3 mM MgCl, 1 mg/mL PI and 44 nM hvps34 was used in the assay. […] COS-7 cells were cultured in 10 cm dishes and transfected at 70% confluence with 10 μg of plasmid DNA (HA-tagged bovine PI4KIIIβ, HA-tagged human PI4KIIIα) using Lipofectamine 2000 and 5 ml Opti-MEM following the manufacturer's instructions. After 5 hours the transfection medium was replaced with 10 ml complete DMEM. 36 hrs post transfection, cells were washed once with 5 ml PBS (pH 7.4) and lysed in 1 ml of lysis buffer (1) on ice. Lysates were collected by scraping and after 15 min they were centrifuged at 13,000 rpm for 10 min. To the lysates was added 200 μl of protein G Sepharose 4 fast flow beads that were prewashed with PBS and lysis buffer and 2 μg of anti-HA antibody. The tubes were then incubated overnight at 4 degrees C. in a tube rotator. The Sepharose beads in the lysate were washed twice with 150 mM NaCl in RIPA buffer, twice with RIPA buffer and once with kinase buffer (50 mM Tris/HCl, pH 7.5, 20 mM MgCl2, 1 mM EGTA, 1 mM PtdIns, 0.4% Triton X-100, 0.5 mg/mL BSA) and finally the beads were resuspended in 200 μL kinase buffer. Kinase reactions were run in a mixture of 45 μL of PI buffer (1 mM PI in kinase buffer), 10 μL of immunoprecipitated beads, 2 µL of inhibitors (dissolved and diluted in DMSO) or DMSO and 5 μL of [γ-^32P]-ATP (1 mM and 2 μCi/tube). The immunoprecipitates in PI buffer were pre-incubated with the drugs for 20 min prior the initiation of kinase reaction by adding ATP and the reactions were carried out for 30 min in 15 ml polypropolyne tubes. Reactions were terminated by addition of 3 ml of CHCl3:CH3OH:HCl (200:100:0.75) followed by 0.6 ml of 0.6N HCl to induce phase separation. The mixtures were vortexed, centrifuged at 2000 rpm for 2 min and the upper phase was discarded. To the lower phase was added 1.5 ml of CHCl3:CH3OH:0.6N HCl (3:48:47) and the mixture vortexed and centrifuged at 2000 rpm for 2 min. The lower phase was then transferred to counting vials and evaporated. Samples were counted in a scintillation beta counter after adding 5 ml of Instafluor (Perkin-Elmer).
PI-kinase assay: Compounds are tested in C.1.1. PI kinase assays as described by Shokat et al., “A membrane capture assay for lipid kinase activity.” Nat. Protoc. 2007; 2(10):2459-66.

PI4KIIIB = target: T2, PI4KIIIB (Bos taurus, UniProt O02810); assay: PI4KIIIB kinase assay; type: biochemical, bovine
T2 construct: made in house; host or cells: COS-7 cells, transient transfection, anti-HA immunoprecipitate on protein G Sepharose beads
Description: as §1, with “2007; 2 (10):2459-66.” left out, “for” for “for the assay. Assays of HsVps34 were performed as described in Knight et al, except that the final assay buffer composition used was changed to 20 mM HEPES 7.5, 100 mM NaCl, 3 mM MgCl, 1 mg/mL PI and 44 nM hvps34 was used in”, “Lysates were collected by scraping and after 15 min they were centrifuged at 13,000 rpm for 10 min.” left out, “The Sepharose beads in the lysate were washed twice with 150 mM NaCl in RIPA buffer, twice with RIPA buffer and once with kinase buffer (50 mM Tris/HCl, pH 7.5, 20 mM MgCl2, 1 mM EGTA, 1 mM PtdIns, 0.4% Triton X-100, 0.5 mg/mL BSA) and finally the beads were resuspended in 200 μL kinase buffer.” left out
PI-kinase assay: Compounds are tested in C.1.1. PI kinase assays as described by Shokat et al., “A membrane capture assay for lipid kinase activity.” Nat. Protoc.

HRV = assay: Rhinovirus antiviral assay; type: cell-based; settings: Human rhinovirus sp.
HCV genotype 2a = assay: microbe, parasite or virus in culture; type: cell-based; settings: Hepatitis C virus, Huh7.5, read-out: HCV2a EC50

T1 sequence (P48736 whole entry): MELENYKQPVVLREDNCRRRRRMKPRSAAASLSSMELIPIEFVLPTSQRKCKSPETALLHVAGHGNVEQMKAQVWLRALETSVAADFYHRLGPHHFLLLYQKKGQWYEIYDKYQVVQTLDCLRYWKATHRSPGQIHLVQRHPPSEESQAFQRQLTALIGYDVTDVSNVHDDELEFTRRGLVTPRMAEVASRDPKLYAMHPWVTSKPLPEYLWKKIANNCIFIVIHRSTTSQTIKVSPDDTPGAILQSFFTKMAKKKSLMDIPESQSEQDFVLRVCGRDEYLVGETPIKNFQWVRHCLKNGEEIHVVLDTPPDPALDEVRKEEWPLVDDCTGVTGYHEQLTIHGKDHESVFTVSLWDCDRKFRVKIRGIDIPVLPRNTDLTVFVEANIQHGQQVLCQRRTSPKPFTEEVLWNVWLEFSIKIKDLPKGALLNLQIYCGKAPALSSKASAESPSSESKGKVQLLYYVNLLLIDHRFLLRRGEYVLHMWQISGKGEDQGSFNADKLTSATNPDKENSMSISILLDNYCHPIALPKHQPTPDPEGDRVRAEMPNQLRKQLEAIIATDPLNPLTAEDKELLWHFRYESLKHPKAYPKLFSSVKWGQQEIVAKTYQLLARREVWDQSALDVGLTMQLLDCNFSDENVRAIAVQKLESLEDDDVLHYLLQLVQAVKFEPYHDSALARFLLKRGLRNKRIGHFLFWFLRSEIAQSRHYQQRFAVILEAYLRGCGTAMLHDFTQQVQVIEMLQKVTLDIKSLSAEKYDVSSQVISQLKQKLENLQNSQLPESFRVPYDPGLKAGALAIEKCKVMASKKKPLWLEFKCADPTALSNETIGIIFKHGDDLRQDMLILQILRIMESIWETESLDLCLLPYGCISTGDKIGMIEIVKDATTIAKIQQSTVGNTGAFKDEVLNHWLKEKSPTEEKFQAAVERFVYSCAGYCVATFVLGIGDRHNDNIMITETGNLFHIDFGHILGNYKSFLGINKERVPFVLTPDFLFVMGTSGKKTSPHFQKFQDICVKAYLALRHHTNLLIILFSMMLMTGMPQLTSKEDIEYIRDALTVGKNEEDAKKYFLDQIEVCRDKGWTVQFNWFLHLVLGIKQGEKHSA
T2 sequence (O02810 whole entry): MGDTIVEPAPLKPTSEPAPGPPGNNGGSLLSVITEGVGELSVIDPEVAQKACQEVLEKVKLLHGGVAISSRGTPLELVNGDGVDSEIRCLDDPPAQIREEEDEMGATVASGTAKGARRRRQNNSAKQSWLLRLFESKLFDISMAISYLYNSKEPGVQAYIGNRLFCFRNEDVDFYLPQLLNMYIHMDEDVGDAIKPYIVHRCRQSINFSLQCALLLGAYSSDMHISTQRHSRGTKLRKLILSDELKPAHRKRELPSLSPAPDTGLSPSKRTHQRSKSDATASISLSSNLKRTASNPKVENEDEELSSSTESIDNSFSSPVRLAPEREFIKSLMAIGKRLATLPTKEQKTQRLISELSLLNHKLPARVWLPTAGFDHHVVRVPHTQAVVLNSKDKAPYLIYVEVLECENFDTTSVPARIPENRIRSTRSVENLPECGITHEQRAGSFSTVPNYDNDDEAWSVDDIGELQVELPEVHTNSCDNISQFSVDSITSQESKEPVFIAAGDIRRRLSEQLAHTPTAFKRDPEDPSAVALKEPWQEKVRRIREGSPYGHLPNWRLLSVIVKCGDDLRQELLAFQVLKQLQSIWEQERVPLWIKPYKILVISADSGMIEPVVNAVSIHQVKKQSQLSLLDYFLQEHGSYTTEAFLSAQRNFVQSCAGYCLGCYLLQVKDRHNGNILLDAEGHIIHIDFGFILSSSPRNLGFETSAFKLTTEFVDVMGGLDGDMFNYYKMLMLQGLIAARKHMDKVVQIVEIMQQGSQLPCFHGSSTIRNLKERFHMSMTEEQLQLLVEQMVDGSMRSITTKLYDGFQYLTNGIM

| IC50 (PI3K p110g) | IC50 (PI4KIIIB) | Structure (SMILES) | other results |
| --- | --- | --- | --- |
| 1000 to 10000 nM | – | COc1ncc(-c2sc(NC(=O)CC3CCOCC3)nc2C)cc1S(=O)(=O)Nc1cccc(O)c1 [Compound S-259] | – |
| – | < 100 nM | COc1ccc(-c2sc(NC(C)(C)C)nc2C)cc1S(=O)(=O)NC1CCCC(O)C1 (centres unmarked) [Compound S-218, 5-[2-(tert-butylamino)-4-methyl-thiazol-5-yl]-N-(3-hydroxycyclohexyl)-2-methoxy-benzenesulfonamide] | – |
| > 10000 nM | – | COc1ccc(-c2sc(NC(=O)CC3CCOCC3)nc2C)cc1S(=O)(=O)Nc1ccc(F)cc1 [Compound S-170, N-[5-[3-[(4-fluorophenyl)sulfamoyl]-4-methoxy-phenyl]-4-methyl-thiazol-2-yl]-2-tetrahydropyran-4-yl-acetamide] | – |
| > 10000 nM | – | COc1ccc(-c2sc(NC(=O)CC3CCCC3)nc2C)cc1S(=O)(=O)Nc1ccc(C)nc1 [Compound S-100, 2-cyclopentyl-N-[5-[4-methoxy-3-[(6-methyl-3-pyridyl)sulfamoyl]phenyl]-4-methyl-thiazol-2-yl]acetamide; 2,2,2-trifluoroacetic acid] | – |
| – | < 100 nM | COc1ccc(-c2sc(NC(=O)CC3CCCC3)nc2C)cc1S(=O)(=O)NC1CCCNC1 (centres unmarked) [Compound S-173, 2-cyclopentyl-N-[5-[4-methoxy-3-(3-piperidylsulfamoyl)phenyl]-4-methyl-thiazol-2-yl]acetamide; 2,2,2-trifluoroacetic acid] | – |
| > 10000 nM | – | COc1ccc(-c2sc(NCC3CCCCC3)nc2C)cc1S(=O)(=O)NC1CC1 [Compound S-127, 5-[2-(cyclohexylmethylamino)-4-methyl-thiazol-5-yl]-N-cyclopropyl-2-methoxy-benzenesulfonamide] | – |
| > 10000 nM | – | COc1ncc(-c2sc(NC(=O)CC3CCOCC3)nc2C)cc1S(=O)(=O)Nc1cccc(C(=O)O)c1 [Compound S-265] | – |
| – | < 100 nM | Cc1ccc(-c2sc(NC(=O)CC3CCCC3)nc2C)cc1S(=O)(=O)NC1CCCNC1 (centres unmarked) [Compound S-189, 2-cyclopentyl-N-[4-methyl-5-[4-methyl-3-(3-piperidylsulfamoyl)phenyl]thiazol-2-yl]acetamide] | – |
| – | < 100 nM | COc1ccc(-c2sc(NCC(C)C)nc2C)cc1S(=O)(=O)NC1CCCC(O)C1 (centres unmarked) [Compound S-223, N-(3-hydroxycyclohexyl)-5-[2-(isobutylamino)-4-methyl-thiazol-5-yl]-2-methoxy-benzenesulfonamide; 2,2,2-trifluoroacetic acid] | – |
| – | – | COc1ccc(-c2sc(NC3CCCCC3)nc2C)cc1S(=O)(=O)Nc1ccc(O)cc1C [Compound S-106, 5-[2-(cyclohexylamino)-4-methyl-thiazol-5-yl]-N-(4-hydroxy-2-methyl-phenyl)-2-methoxy-benzenesulfonamide] | EC50 (HRV): < 1 nM |
| > 10000 nM | – | COc1ccc(-c2sc(N[C@H](C)CC3CCCCC3)nc2C)cc1S(=O)(=O)NC1CCNCC1 [Compound S-145, 5-[2-[[(1R)-2-cyclohexyl-1-methyl-ethyl]amino]-4-methyl-thiazol-5-yl]-2-methoxy-N-(4-piperidyl)benzenesulfonamide] | – |
| – | < 100 nM | COc1ccc(-c2sc(NCC3CCCCC3)nc2C)cc1S(=O)(=O)NC1CCCC(O)C1 (centres unmarked) [Compound S-199, 5-[2-(cyclohexylmethylamino)-4-methyl-thiazol-5-yl]-N-(3-hydroxycyclohexyl)-2-methoxy-benzenesulfonamide] | – |
| 1000 to 10000 nM | – | COc1ncc(-c2sc(NC(=O)CC3CCOCC3)nc2C)cc1S(=O)(=O)N[C@H]1CC[C@@H](O)CC1 [Compound S-262] | – |
| > 10000 nM | – | COc1ccc(-c2sc(NCC3CCCCC3)nc2C)cc1S(=O)(=O)NCC1CCCCC1 [Compound S-128, N-(cyclohexylmethyl)-5-[2-(cyclohexylmethylamino)-4-methyl-thiazol-5-yl]-2-methoxy-benzenesulfonamide] | – |
| – | – | COc1ccc(NS(=O)(=O)c2cc(-c3sc(NC4CCCCC4)nc3C)ccc2OC)c(C)c1 [Compound S-66, 5-[2-(cyclohexylamino)-4-methyl-thiazol-5-yl]-2-methoxy-N-(4-methoxy-2-methyl-phenyl)benzenesulfonamide; 2,2,2-trifluoroacetic acid] | EC50 (HRV): < 1 nM; EC50 (HCV genotype 2a): 1000 to 10000 nM |
| – | – | COc1ccc(NS(=O)(=O)c2cc(-c3sc(NC4CCCCCC4)nc3C)ccc2OC)c(C)c1 [Compound S-89, 5-[2-(cycloheptylamino)-4-methyl-thiazol-5-yl]-2-methoxy-N-(4-methoxy-2-methyl-phenyl)benzenesulfonamide; 2,2,2-trifluoroactic acid] | EC50 (HRV): < 1 nM |
| – | < 100 nM | COc1ccc(-c2sc(NC(=O)CCC3CCCC3)nc2C)cc1S(=O)(=O)NC1CCC(O)CC1 (centres unmarked) [Compound S-156, 3-cyclopentyl-N-[5-[3-[(4-hydroxycyclohexyl)sulfamoyl]-4-methoxy-phenyl]-4-methyl-thiazol-2-yl]propanamide] | – |
| – | < 100 nM | COc1ccc(-c2sc(NC(C)(C)C)nc2C)cc1S(=O)(=O)NC1CCCNC1 (centres unmarked) [Compound S-220, 5-[2-(tert-butylamino)-4-methyl-thiazol-5-yl]-2-methoxy-N-(3-piperidyl)benzenesulfonamide] | – |
| – | – | COc1ccc(NS(=O)(=O)c2cc(-c3sc(NC(=O)CC4CCCCC4)nc3C)ccc2OC)c(C)c1 [Compound S-85, 2-cyclohexyl-N-[5-[4-methoxy-3-[(4-methoxy-2-methyl-phenyl)sulfamoyl]phenyl]-4-methyl-thiazol-2-yl]acetamide] | EC50 (HRV): < 1 nM |
| > 10000 nM | – | COc1ccc(-c2sc(NC(=O)CC3CCOCC3)nc2C)cc1S(=O)(=O)Nc1cc(C)cc(O)c1 [Compound S-169, N-[5-[3-[(3-hydroxy-5-methyl-phenyl)sulfamoyl]-4-methoxy-phenyl]-4-methyl-thiazol-2-yl]-2-tetrahydropyran-4-yl-acetamide] | – |
| > 10000 nM | – | COc1ccc(-c2sc(NC3CCCCC3)nc2C)cc1S(=O)(=O)NC1CCCC1 [Compound S-129, 5-[2-(cyclohexylamino)-4-methyl-thiazol-5-yl]-N-cyclopentyl-2-methoxy-benzenesulfonamide] | – |
| > 10000 nM | – | COc1ccc(-c2sc(N[C@H](C)C3CCCCC3)nc2C)cc1S(=O)(=O)NC1CCNCC1 [Compound S-147, 5-[2-[[(1R)-1-cyclohexylethyl]amino]-4-methyl-thiazol-5-yl]-2-methoxy-N-(4-piperidyl)benzenesulfonamide] | – |

| Structure (SMILES) | IC50 (PI3K p110g) | IC50 (PI4KIIIB) | other results |
| --- | --- | --- | --- |
| COc1ncc(-c2sc(NC(=O)CC3CCOCC3)nc2C)cc1S(=O)(=O)Nc1ccc(O)cc1 [Compound S-261] | 100 to 1000 nM | – | EC50 (HRV): 1000 to 10000 nM; EC50 (HCV genotype 2a): 1 to 100 nM |
